Test results taken from US10858335B2 (Rigel Pharmaceuticals, Inc., priority 2014, dated 2020).

test system: GDF8 signaling (p-SMAD-3 (Ser423/425)); experiment: AlphaScreen SureFire SMAD3 (p-Ser423/425) assay, GDF8-stimulated cells (GDF pSMAD); format: cell-based; details: MPC11; GDF8-stimulated; p-SMAD3 AlphaScreen; read-out: GDF pSMAD (MPC11) (inhibition of GDF8 signaling)

Structure (SMILES) | IC50
Cc1cc(-c2ncccc2-c2ccc3ncc(C(=O)NC4CC5CCC(C4)N5C)n3c2)ccc1F (stereo not drawn) [compound 712, exo-6-(2-(4-Fluoro-3-methylphenyl)pyridin-3-yl)-N-(8-methyl-8-azabicyclo[3.2.1]octan-3-yl)imidazo[1,2-a]pyridine-3-carboxamide] | 4.06 µM
Nc1ncnc2ccc(-c3cccnc3-c3cc(Cl)ccc3F)cc12 [compound 818, 6-(2-(5-Chloro-2-fluorophenyl)pyridin-3-yl)quinazolin-4-amine] | 0.0774 µM

same assay, conditions: Mus musculus, MPC-11, GDF8-stimulated pSMAD3, MPC11; tested as the salt form given; read-out: GDF pSMAD (MPC11) (μM), inhibition of GDF8 signaling

IC50 | Structure (SMILES)
1 µM | Nc1ncnc2ccc(-c3cccnc3-c3cccc(O)c3)cc12 [compound 977, 3-(3-(4-aminoquinazolin-6-yl)pyridin-2-yl)phenol]
10.4 µM | COC(=O)CNc1ncnc2ccc(-c3cccnc3-c3ccc(F)c(C)c3)cc12 [compound 1028, methyl (6-(2-(4-fluoro-3-methylphenyl)pyridin-3-yl)quinazolin-4-yl)glycinate]
0.48 µM | c1cnc(-c2ccc3occc3c2)c(-c2ccc3ncsc3c2)c1 [compound 1073]
1.58 µM | Fc1ccc(Cl)cc1-c1ncccc1-c1ccc2ncnc(Nc3cn[nH]c3)c2c1 [compound 1033, 6-(2-(5-chloro-2-fluorophenyl)pyridin-3-yl)-N-(1H-pyrazol-4-yl)quinazolin-4-amine]
9.67 µM | c1cnc(-c2cccc3c2OCC3)c(-c2ccc3ncsc3c2)c1 [compound 1076]

same assay, conditions: Mus musculus, MPC-11, MPC11; GDF8-stimulated; p-SMAD3 AlphaScreen; read-out: GDF pSMAD (MPC11) (inhibition of GDF8 signaling)

IC50 | Structure (SMILES)
0.429 µM | Cc1cc(-c2ncccc2-c2ccc3ncc(C#N)n3n2)ccc1F [compound 947, 6-(2-(4-Fluoro-3-methylphenyl)pyridin-3-yl)imidazo[1,2-b]pyridazine-3-carbonitrile]
18.1 µM | NC(=O)c1ccnc2ccc(-c3cccnc3-c3cc(Cl)ccc3F)cc12 [compound 849, 6-(2-(5-Chloro-2-fluorophenyl)pyridin-3-yl)quinoline-4-carboxamide]
2.13 µM | Cc1cc(-c2ncccc2-c2ccc3ncc(C(=O)N[C@H]4CCCC[C@@H]4N)n3c2)ccc1F [compound 680, N-((1S,2S)-2-Aminocyclohexyl)-6-(2-(4-fluoro-3-methylphenyl)pyridin-3-yl)imidazo[1,2-a]pyridine-3-carboxamide]
0.272 µM | Clc1ccc(Cl)c(-c2ncccc2-c2ccn3nccc3n2)c1 [compound 920, 5-(2-(2,5-Dichlorophenyl)pyridin-3-yl)pyrazolo[1,5-a]pyrimidine]
0.414 µM | Fc1ccc(-c2ncccc2-c2ccc3nccnc3c2)cc1Cl [compound 690, 6-(2-(3-Chloro-4-fluorophenyl)pyridin-3-yl)quinoxaline]
0.145 µM | Clc1cccc(-c2ncccc2-c2ccc3nccn3c2)c1 [compound 698, 6-(2-(3-Chlorophenyl)pyridin-3-yl)imidazo[1,2-a]pyridine]
0.11 µM | Cn1cnc2ccc(-c3cccnc3-c3cc(Cl)ccc3F)cc21 [compound 785, 6-(2-(5-Chloro-2-fluorophenyl)pyridin-3-yl)-1-methyl-1H-benzo[d]imidazole]
0.251 µM | Cc1cnc(-c2cc(Cl)ccc2F)c(-c2ccn3ncnc3c2)c1 [compound 866, 7-(2-(5-Chloro-2-fluorophenyl)-5-methylpyridin-3-yl)-[1,2,4]triazolo[1,5-a]pyridine]
0.557 µM | Cn1cnc2ccc(-c3cccnc3-c3cc(Cl)ccc3Cl)cc21 [compound 870, 6-(2-(2,5-Dichlorophenyl)pyridin-3-yl)-1-methyl-1H-benzo[d]imidazole]
10.2 µM | Cc1ccc(C(F)(F)F)cc1-c1ncccc1-c1ccn2ncnc2c1 [compound 878, 7-(2-(2-Methyl-5-(trifluoromethyl)phenyl)pyridin-3-yl)-[1,2,4]triazolo[1,5-a]pyridine]

The next lines start with the compound.

Structure (SMILES) | IC50
Cc1cc(-c2ncccc2-c2ccc3ncnc(NC4CC4)c3c2)ccc1F [compound 404, N-Cyclopropyl-6-(2-(4-fluoro-3-methylphenyl)pyridin-3-yl)quinazolin-4-amine] | 1.03 µM
Cc1cccc(-c2ncc(N)cc2-c2ccc3ncsc3c2)c1 [Compound 20, 5-(Benzo[d]thiazol-6-yl)-6-m-tolylpyridin-3-amine] | 0.104 µM
Cn1cnc2ccc(-c3cccnc3-c3cccc(C4CC4)c3)cc2c1=O [compound 342, 6-(2-(3-Cyclopropylphenyl)pyridin-3-yl)-3-methylquinazolin-4(3H)-one] | 0.106 µM
Nc1ncc2ccc(-c3cccnc3-c3ccc(F)c(Cl)c3)cc2n1 [compound 496, 7-(2-(3-Chloro-4-fluorophenyl)pyridin-3-yl)quinazolin-2-amine] | 0.783 µM
Cc1cc(-c2ncccc2-c2ccc3c(cnn3C(=O)NCCN)c2)ccc1F [compound 639, N-(2-Aminoethyl)-5-(2-(4-fluoro-3-methylphenyl)pyridin-3-yl)-1H-indazole-1-carboxamide] | 10.6 µM
CCc1cccc(-c2ncccc2-c2ccc3[nH]ncc3c2)c1 [Compound 149, 5-(2-(3-Ethylphenyl)pyridin-3-yl)-1H-indazole] | 0.642 µM
CCOCCCn1cnc2ccc(-c3cccnc3-c3cccc(C)c3)cc21 [Compound 39, 1-(3-Ethoxypropyl)-6-(2-m-tolylpyridin-3-yl)-1H-benzo[d]imidazole] | 14.3 µM
COc1ccc(NC(=O)c2cnc3ccc(-c4cccnc4-c4ccc(F)c(C)c4)cn23)cc1OC [compound 582, N-(3,4-Dimethoxyphenyl)-6-(2-(4-fluoro-3-methylphenyl)pyridin-3-yl)imidazo[1,2-a]pyridine-3-carboxamide] | 0.494 µM
Cc1cc(-c2ncccc2-c2ccc3ncc(C(=O)N[C@@H]4CN5CCC4CC5)n3c2)ccc1F [compound 790, (S)-6-(2-(4-Fluoro-3-methylphenyl)pyridin-3-yl)-N-(quinuclidin-3-yl)imidazo[1,2-a]pyridine-3-carboxamide] | 4.99 µM
Cc1cc(-c2ncc(NCc3cccnc3C)cc2-c2ccc3ncsc3c2)ccc1F [compound 331, 5-(Benzo[d]thiazol-6-yl)-6-(4-fluoro-3-methylphenyl)-N-((2-methylpyridin-3-yl)methyl)pyridin-3-amine] | 1.33 µM
O=c1nc[nH]c2ccc(-c3cccnc3-c3cccc(C4CC4)c3)cc12 [compound 362, 6-(2-(3-Cyclopropylphenyl)pyridin-3-yl)quinazolin-4(1H)-one] | 0.105 µM
Cc1cc(-c2ncccc2-c2ccc3nncn3c2)ccc1F [Compound 161, 6-(2-(4-Fluoro-3-methylphenyl)pyridin-3-yl)-[1,2,4]triazolo[4,3-a]pyridine] | 9.1 µM
CC(C)c1cccc(-c2ncccc2-c2cnc3[nH]ncc3c2)c1 [Compound 167, 5-(2-(3-Isopropylphenyl)pyridin-3-yl)-1H-pyrazolo[3,4-b]pyridine] | 17.5 µM
Cc1cc(-c2ncccc2-c2ccc3ncn(CCN4CCOCC4)c3c2)ccc1F [Compound 35, 6-(2-(4-Fluoro-3-methylphenyl)pyridin-3-yl)-1-(2-morpholinoethyl)-1H-benzo[d]imidazole] | 10.8 µM
Cc1cc(-c2ncccc2-c2ccc3c(cnn3C(=O)NCCN3CCCC3)c2)ccc1F [compound 636, 5-(2-(4-Fluoro-3-methylphenyl)pyridin-3-yl)-N-(2-(pyrrolidin-1-yl)ethyl)-1H-indazole-1-carboxamide] | 8.69 µM
COc1cccc(-c2ncccc2-c2ccc3[nH]ncc3c2)c1 [Compound 117, 5-(2-(3-Methoxyphenyl)pyridin-3-yl)-1H-indazole] | 0.179 µM
Nc1ncnc2ccc(-c3cccnc3-c3ccc(F)c(C(F)(F)F)c3)cc12 [compound 476, 6-(2-(4-Fluoro-3-(trifluoromethyl)phenyl)pyridin-3-yl)quinazolin-4-amine] | 2.76 µM
Cc1cc(-c2ncc(Nc3ccncc3)cc2-c2ccc3ncsc3c2)ccc1F [compound 311, 5-(Benzo[d]thiazol-6-yl)-6-(4-fluoro-3-methylphenyl)-N-(pyridin-4-yl)pyridin-3-amine] | 4.72 µM
Cc1cc(-c2ncccc2-c2ccc3ncnc(N)c3c2)ccc1F [compound 392, 6-(2-(4-Fluoro-3-methylphenyl)pyridin-3-yl)quinazolin-4-amine] | 0.127 µM
COc1ncnc2ccc(-c3cccnc3-c3ccc(F)c(Cl)c3)cc12 [compound 395, 6-(2-(3-Chloro-4-fluorophenyl)pyridin-3-yl)-4-methoxyquinazoline] | 0.959 µM
Cc1cc(-c2ncccc2-c2ccn3c(C(=O)NCCCN4CCN(C)CC4)ncc3c2)ccc1F [compound 264, 7-(2-(4-Fluoro-3-methylphenyl)pyridin-3-yl)-N-(3-(4-methylpiperazin-1-yl)propyl)imidazo[1,5-a]pyridine-3-carboxamide] | 9.15 µM
Nc1ncnc2ccc(-c3cccnc3-c3ccc(F)cc3Cl)cc12 [compound 499, 6-(2-(2-Chloro-4-fluorophenyl)pyridin-3-yl)quinazolin-4-amine] | 6.52 µM
Cc1cc(-c2ncccc2-c2ccc3ncnn3c2)ccc1F [Compound 191, 6-(2-(4-Fluoro-3-methylphenyl)pyridin-3-yl)-[1,2,4]triazolo[1,5-a]pyridine] | 0.663 µM
Cc1cc(-c2ncccc2-c2ccc3nc(F)cn3c2)ccc1F [compound 254, 2-Fluoro-6-(2-(4-fluoro-3-methylphenyl)pyridin-3-yl)imidazo[1,2-a]pyridine] | 0.39 µM
Cc1cc(-c2ncccc2-c2ccc3ncncc3c2)ccc1F [compound 363, 6-(2-(4-Fluoro-3-methylphenyl)pyridin-3-yl)quinazoline] | 0.903 µM
Cc1cc(-c2ncccc2-c2ccn3c(C(=O)NCCCN4CCOCC4)ncc3c2)ccc1F [compound 266, 7-(2-(4-Fluoro-3-methylphenyl)pyridin-3-yl)-N-(3-morpholinopropyl)imidazo[1,5-a]pyridine-3-carboxamide] | 4.54 µM
